Measurements as given in ChEMBL document CHEMBL5335854, “Genomic and Metabolomic Analyses of Nocardiopsis maritima YSL2 as the Mycorrhizosphere Bacterium of Suaeda maritima (L.) Dumort” (2024).
Values after ≈ are worked out from the molar mass of the structure shown.

What was measured:
Type in all cases: functional
Bacillus subtilis = test: Antibacterial activity against Bacillus subtilis KCCM 11316 assessed as inhibition of bacterial growth incubated for 24 hrs by broth dilution method
[1] = system: Staphylococcus epidermidis; test: Antibacterial activity against Staphylococcus epidermidis KCCM 35494 assessed as inhibition of bacterial growth incubated for 24 hrs by broth dilution method
Pseudomonas fluorescens = test: Antibacterial activity against Pseudomonas fluorescens KCCM 11362 assessed as inhibition of bacterial growth incubated for 24 hrs by broth dilution method
Escherichia coli = test: Antibacterial activity against Escherichia coli KCCM 11234 assessed as inhibition of bacterial growth incubated for 24 hrs by broth dilution method

Compound	MIC (Bacillus subtilis) [µg/mL]	MIC [1] [µg/mL]	MIC (Pseudomonas fluorescens) [µg/mL]	MIC (Escherichia coli) [µg/mL]
CC[C@@H](C)[C@H]1NC(=O)[C@H](Cc2ccccc2)NC(=O)[C@@H](CCCCN)NC(=O)[C@H](Cc2ccc(O)cc2)NC(=O)[C@H]([C@@H](C)CC)NC(=O)[C@@H](CC(C)C)NC1=O	> 128	4 (≈ 5.14 µM)	16 (≈ 20.6 µM)	16 (≈ 20.6 µM)
CC[C@H](C)[C@@H]1NC(=O)[C@@H](CC(C)C)NC(=O)[C@@H](C(C)C)NC(=O)[C@H](Cc2ccccc2)NC(=O)[C@@H](CCCCN)NC(=O)[C@H](Cc2ccc(O)cc2)NC1=O	> 128	8 (≈ 10.5 µM)	32 (≈ 41.9 µM)	16 (≈ 20.9 µM)
NC[C@H]1O[C@H](O[C@H]2[C@H](O)[C@@H](O[C@H]3O[C@H](CO)[C@@H](O)[C@H](N)[C@H]3O)[C@H](N)C[C@@H]2N)[C@H](O)[C@@H](O)[C@@H]1O [KANAMYCIN]	2 (≈ 4.13 µM)	0.5 (≈ 1.03 µM)	1 (≈ 2.06 µM)	1 (≈ 2.06 µM)
